Measured values: paper PMC10112521, “High-throughput AR dimerization assay identifies androgen disrupting chemicals and metabolites” (Frontiers in Toxicology, 2023)
Read-outs that look alike come from different tables or passages of the source.

Legend:
[1] = test system: full-length human AR and the receptor interacting domain (RID) of SRC1; set-up: method as in U.S. EPA, 2002b; conditions: cited from earlier work
[2] = test system: human AR (LBD and AF2 domains) and the RID of human SRC2; set-up: method as in U.S. EPA, 2002b; conditions: activity call, agonist mode, 2 h; invitroDBv3.4 ref U.S. EPA, 2002b; cited from earlier work
[3] = test system: human AR (LBD and AF2 domains) and the RID of human SRC2; set-up: method as in U.S. EPA, 2002b; conditions: cited from earlier work
[4] = test system: AR; set-up: method as in Kleinstreuer et al., 2017; conditions: 2017, cited from earlier work; for Agonist reference: AR agonist reference class ref Kleinstreuer et al.; for Antagonist reference: AR antagonist reference class ref Kleinstreuer et al.
[5] = test system: AR2 cells (HepG2-AR2); assay: Alamar Blue (resazurin) post hoc cell viability / cytotoxicity assay in AR2 cells; conditions: spid Viability, sheet antagonist_fits; for hill_tp (Hill model top): 0 where win_model is Constant
Method: (§1) For antagonist mode and cytotoxicity data, well-level normalized response (resp) was calculated as: resp=100 * RLU−bval/pval−bval where pval is the median RLU value of the MEC positive control wells (minimum four wells).

[6] = molecular target: T1, human AR (Homo sapiens, UniProt P10275); assay: AR2 assay, agonist mode: ligand-dependent AR homodimerization (NanoBiT luciferase complementation) in stable HepG2-AR2 cells; type: cell-based; conditions: for AR2 agonist: activity call, agonist mode; for hill_tp / max_med / win_model / hill_gw: sheet agonist_fits; for hill_tp: Hill model top (efficacy); for hill_tp / hill_gw: 0 given where win_model is Constant; for max_med: maximum median response; for win_model: winning concentration-response model (Constant, Hill, Gain-Loss); for hill_gw: Hill model gain slope (Hill coefficient);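 for hill tp: Log2 fold change of luminescence over DMSO vehicle wells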;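 for max med: Log2 fold change of luminescence over DMSO vehicle wells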
T1 sequence (P10275 1-920) 1: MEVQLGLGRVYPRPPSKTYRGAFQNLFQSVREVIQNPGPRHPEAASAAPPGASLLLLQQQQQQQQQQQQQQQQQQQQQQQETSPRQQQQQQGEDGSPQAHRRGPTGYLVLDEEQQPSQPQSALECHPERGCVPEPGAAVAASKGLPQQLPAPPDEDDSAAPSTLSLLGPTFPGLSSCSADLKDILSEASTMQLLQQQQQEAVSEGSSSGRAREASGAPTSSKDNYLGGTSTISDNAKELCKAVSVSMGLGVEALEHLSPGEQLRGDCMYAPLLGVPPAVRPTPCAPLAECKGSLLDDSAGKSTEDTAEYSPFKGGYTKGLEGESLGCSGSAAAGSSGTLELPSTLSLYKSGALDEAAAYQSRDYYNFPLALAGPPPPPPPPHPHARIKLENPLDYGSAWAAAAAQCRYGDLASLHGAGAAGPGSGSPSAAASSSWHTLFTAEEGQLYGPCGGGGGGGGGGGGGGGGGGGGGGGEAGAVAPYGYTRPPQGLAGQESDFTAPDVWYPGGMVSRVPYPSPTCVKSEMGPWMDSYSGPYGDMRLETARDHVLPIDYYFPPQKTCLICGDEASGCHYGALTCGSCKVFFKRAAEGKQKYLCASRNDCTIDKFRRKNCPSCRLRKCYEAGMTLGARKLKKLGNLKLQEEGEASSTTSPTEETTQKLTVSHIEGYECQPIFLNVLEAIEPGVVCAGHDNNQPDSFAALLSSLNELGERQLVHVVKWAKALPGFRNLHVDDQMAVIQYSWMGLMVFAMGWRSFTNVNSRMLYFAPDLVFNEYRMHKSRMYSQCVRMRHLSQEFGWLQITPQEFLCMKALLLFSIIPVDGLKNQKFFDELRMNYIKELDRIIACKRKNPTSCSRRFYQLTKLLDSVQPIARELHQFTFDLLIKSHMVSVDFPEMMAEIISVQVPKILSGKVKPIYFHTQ
T1 sequence (P10275 1-920) 2: T1 sequence (P10275 1-920) 1

[7] = molecular target: T1, human AR; assay: AR2 assay, antagonist mode: disruption of R1881 (10 nM)-induced AR homodimerization in HepG2-AR2 cells; type: cell-based; conditions: for AR2 antagonist: activity call, antagonist mode, 18 h
[8] = test system: AR2 cells (HepG2-AR2)
Method: as §1

[9] = molecular target: T1, human AR; assay: cell-based; set-up: species or system AR2 cells (HepG2-AR2); NanoLuc complementation AR homodimerization, antagonist mode, loss of agonist-induced luminescence, AC50 by Hill fit; conditions: hill_ga, antagonist mode, 10 nM agonist stimulus, 18 h, no CYP expressed
[10] = molecular target: T1, human AR; assay: cell-based; set-up: species or system AR2 cells (HepG2-AR2); NanoLuc complementation AR homodimerization, agonist mode, luminescence gain, AC50 by Hill fit; conditions: hill_ga, spid=Bgal; agonist mode, 18 h, no CYP expressed
[11] = spid AR_antagonist, sheet antagonist_fits
[12] = spid AR_antagonist, sheet antagonist_fits, 0 where win_model is Constant
[13] = activity call, 8 h, single protocol detects agonists and antagonists, invitroDBv3.4 ref U.S. EPA, 2002b
[14] = activity call, 16 h, single protocol detects agonists and antagonists, invitroDBv3.4 ref U.S. EPA, 2002b
[15] = activity call, antagonist mode, 2 h, invitroDBv3.4 ref U.S. EPA, 2002b
[16] = spid AR_antagonist, sheet antagonist_fits, Hill fit parameter

Structure (SMILES) | UPitt agonist [2] | Agonist reference [4] | Antagonist reference [4] | max_med (maximum median response) [5] | hill_tp (Hill model top) [5] | hill_tp [6] | max_med [6] | win_model [6] | hill_tp (Hill model top) [7] | max_med (maximum median response) [7] | win_model (winning concentration-response model) [7, 11] | hill_gw (Hill model slope) [7, 12] | hill_ga (Hill model log AC50) [8] | OT 8 hr [1, 13] | OT 16 hr [1, 14] | UPitt antagonist [3, 15] | Antagonist reference ([4]; Supplementary Table S1) | AR2 antagonist [7] | AC50 ([9]; spid=Bgal) | AC50 ([9]; spid=No_RNA) | further results
C[C@]12CCC(=O)C=C1CC[C@@H]1[C@@H]2CC[C@@]2(C)[C@H]1CC[C@]2(C)O [17-Methyltestosterone] | 0 | Strong | Inactive | 23.6208 | 30.9505 |  |  |  |  |  |  |  |  |  |  |  |  |  |  |  | OT 8 hr [1]: 1; OT 16 hr [1]: 1; UPitt antagonist [3]: 0; Agonist reference ([4]; Supplementary Table S1): Strong
CCCCNC(=O)n1c(NC(=O)OC)nc2ccccc21 [Benomyl] | 0 | Inactive |  | 28.9418 | 26.9649 | 0 | 0.04446 | Constant | 30.7847 | 31.5571 | Hill | 3.063 | 0.6267 | 0 | 1 |  |  |  |  |  | AR2 agonist ([6]; 18 h): 0
CC(O)(CS(=O)(=O)c1ccc(F)cc1)C(=O)Nc1ccc(C#N)c(C(F)(F)F)c1 (centres unmarked) [Bicalutamide] |  |  | Strong | 19.8696 | 21.5759 |  |  |  |  |  |  |  |  | 1 | 1 | 1 | Strong |  |  |  | hill_tp (Hill model top) ([5]; listed as BICAL): 57.2356; max_med (maximum median response) ([5]; listed as BICAL): 25.4903
CC(C)(c1ccc(O)cc1)c1ccc(O)cc1 [Bisphenol A] |  |  | Moderate | 20.3748 | 26.326 | 0.2654 | 0.1199 | Gain-Loss |  |  | Hill | 1.098 |  | 0 | 1 | 1 | Moderate | 1 | 13.1 µM | 15.9 µM | activity call in agonist mode ([6]; 128-chemical evaluation, 18 h, active = maximal median response >5*bmad): tested negative; hill_gw [6]: 0.5365; max_med (maximum median response) [7, 11]: 101.007; hill_tp (Hill model top) [7, 12]: 118.275; AC50 [10]: > 99.9 µM
COC(=O)Nc1nc2ccccc2[nH]1 [Carbendazim] | 0 | Inactive |  | 17.1488 | 11.742 | 0 | 0.02367 | Constant | 18.0536 | 16.7598 | Hill | 8 | 1.227 | 0 | 1 |  |  |  |  |  | AR2 agonist ([6]; 18 h): 0
CC(=O)O[C@]1(C(C)=O)CC[C@H]2[C@@H]3C=C(Cl)C4=CC(=O)[C@@H]5C[C@@H]5[C@]4(C)[C@H]3CC[C@@]21C [Cyproterone acetate] | 1 | Weak | Moderate | 16.8337 | 12.2685 |  |  |  |  |  |  |  |  | 1 | 1 | 1 | Moderate |  |  |  | Agonist reference ([4]; Supplementary Table S1): Weak
CC#C[C@]1(O)CC[C@H]2[C@@H]3CCC4=CC(=O)CCC4=C3[C@@H](c3ccc(N(C)C)cc3)C[C@@]21C [Mifepristone] |  |  | Strong | 9.555 | 0 |  |  |  |  |  |  |  |  | 1 | 1 | 1 | Strong |  |  |  | 
CC1(C)C(C=C(Cl)Cl)C1C(=O)OCc1cccc(Oc2ccccc2)c1 (centres unmarked) [Permethrin] | 0 | Inactive |  | 5.481 | 0 | 0 | 0.006626 | Constant | 63.3496 | 53.132 | Hill | 1.786 | 0 | 0 | 0 |  |  |  | 27.5 µM | 47.3 µM | AR2 agonist ([6]; 18 h): 0
CC12CC1(C)C(=O)N(c1cc(Cl)cc(Cl)c1)C2=O (centres unmarked) [Procymidone] |  |  | Weak | 14.9874 | 19.1789 | 0.2332 | 0.2214 | Hill |  | 95.0019 | Hill | 0.938 | -1.506 | 0 | 0 | 1 | Weak | 1 | 3.84 µM | 4.23 µM | hill_gw [6]: 8; AC50 [10]: > 99.9 µM
CCCC1COC(Cn2cncn2)(c2ccc(Cl)cc2Cl)O1 (centres unmarked) [Propiconazole] |  |  | Weak | 5.206 | 0 | 0 | 0.05395 | Constant | 116.132 | 96.3637 | Hill | 1.532 |  | 1 | 1 | 1 | Weak | 1 | 33.8 µM | 32.2 µM | 
C[C@H]1CCCC(=O)CCC/C=C/c2cc(O)cc(O)c2C(=O)O1 [Zearalenone] |  |  | Weak | 41.4682 |  | 0 | 0.2969 | Constant |  |  |  |  |  | 0 | 0 | 1 | Weak | 1 | 9.73 µM | 7.46 µM | max_med (maximum median response) [7, 11]: 103.904; win_model (winning curve-fit model) ([7]; spid AR_antagonist, sheet antagonist_fits, Constant = no concentration response): Hill; hill_gw (Hill model slope/Hill coefficient) [7, 16]: 2.042; hill_tp (Hill model top of curve) [7, 16]: 105.112; hill_tp (Hill model top of curve) ([5]; Hill fit parameter): 49.8014
